Measured values as given in article PMC7762994 (Viruses, 2020).

Columns and labels:
[1] = target: T1, Hsp70 (Homo sapiens, UniProt P0DMV8); assay: Cellular thermal shift assay; format: binding; settings: U87 and SW13 cells, 56 and 59 °C, CETSA-TR at 20 μM and dose dependently
T1 construct: endogenous in cells; host or cells: U87 or SW13 cells

[2] = target: T2, OGG1 (Homo sapiens, UniProt O15527); assay: Cellular thermal shift assay (CETSA), Western blot; format: binding; parameters: endogenous in cells; host or cells: SW13 or U87 cells
[3] = target: T2, OGG1; assay: In vitro OGG1 activity assay; format: biochemical
[4] = system: Hazara virus (HAZV); assay: microbe, parasite or virus in culture; format: cell-based; settings: Hazara virus
[5] = target: T3, DNAJB11 (Homo sapiens, UniProt Q9UBS4); assay: 2D-TPP in U87 cells
T3 sequence (Q9UBS4 23-358): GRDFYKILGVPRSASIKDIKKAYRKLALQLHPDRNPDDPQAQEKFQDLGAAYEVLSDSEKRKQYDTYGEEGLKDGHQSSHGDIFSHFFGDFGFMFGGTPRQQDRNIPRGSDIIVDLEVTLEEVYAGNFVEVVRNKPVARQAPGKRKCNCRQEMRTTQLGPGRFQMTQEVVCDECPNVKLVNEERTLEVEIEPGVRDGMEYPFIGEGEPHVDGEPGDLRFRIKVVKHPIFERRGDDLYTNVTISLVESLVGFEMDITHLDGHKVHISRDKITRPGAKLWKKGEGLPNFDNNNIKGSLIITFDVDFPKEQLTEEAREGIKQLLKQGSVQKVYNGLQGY

[6] = target: EDEM3 (Homo sapiens, UniProt Q9BZQ6); assay: TPP-TR in HAZV-infected SW13 cells; settings: 20 μM, 4 h
[7] = target: T4, CALR (Homo sapiens, UniProt P27797); assay: 2D-TPP in U87 cells; format: binding; settings: 1.5 h, stabilized, read-out: pEC50 of protein stabilization, CALR (converted)
T4 construct: endogenous in cells; host or cells: U87 cells

[8] = target: T5, HSPA12A (Homo sapiens, UniProt O43301); assay: 2D-TPP in U87 cells; format: binding; settings: 1.5 h, destabilized, read-out: pEC50 of protein destabilization, HSPA12A (converted)
T5 construct: endogenous in cells; host or cells: U87 cells

[9] = system: CoV 229E; assay: CoV 229E titer in Huh7 cells, end-point dilution assay; format: cell-based, Coronavirus 229E; settings: MOI 5, 10 µM, 24 h
[10] = system: host proteins (proteome-wide); assay: 2D-TPP in U87 cells (proteome-wide); format: binding, Homo sapiens; settings: protein A0A087WUL8 (NBPF19¦NBPF26¦NBPF1¦NBPF20¦NBPF8¦NBPF12¦NBPF14)
[11] = target: T6, host proteins (proteome-wide) (Homo sapiens, UniProt A0AVT1); assay: 2D-TPP in U87 cells (proteome-wide); format: binding; settings: protein A0AVT1 (UBA6)
T6 construct: endogenous in cells; host or cells: U87 cells
T6 sequence (A0AVT1 1-1052): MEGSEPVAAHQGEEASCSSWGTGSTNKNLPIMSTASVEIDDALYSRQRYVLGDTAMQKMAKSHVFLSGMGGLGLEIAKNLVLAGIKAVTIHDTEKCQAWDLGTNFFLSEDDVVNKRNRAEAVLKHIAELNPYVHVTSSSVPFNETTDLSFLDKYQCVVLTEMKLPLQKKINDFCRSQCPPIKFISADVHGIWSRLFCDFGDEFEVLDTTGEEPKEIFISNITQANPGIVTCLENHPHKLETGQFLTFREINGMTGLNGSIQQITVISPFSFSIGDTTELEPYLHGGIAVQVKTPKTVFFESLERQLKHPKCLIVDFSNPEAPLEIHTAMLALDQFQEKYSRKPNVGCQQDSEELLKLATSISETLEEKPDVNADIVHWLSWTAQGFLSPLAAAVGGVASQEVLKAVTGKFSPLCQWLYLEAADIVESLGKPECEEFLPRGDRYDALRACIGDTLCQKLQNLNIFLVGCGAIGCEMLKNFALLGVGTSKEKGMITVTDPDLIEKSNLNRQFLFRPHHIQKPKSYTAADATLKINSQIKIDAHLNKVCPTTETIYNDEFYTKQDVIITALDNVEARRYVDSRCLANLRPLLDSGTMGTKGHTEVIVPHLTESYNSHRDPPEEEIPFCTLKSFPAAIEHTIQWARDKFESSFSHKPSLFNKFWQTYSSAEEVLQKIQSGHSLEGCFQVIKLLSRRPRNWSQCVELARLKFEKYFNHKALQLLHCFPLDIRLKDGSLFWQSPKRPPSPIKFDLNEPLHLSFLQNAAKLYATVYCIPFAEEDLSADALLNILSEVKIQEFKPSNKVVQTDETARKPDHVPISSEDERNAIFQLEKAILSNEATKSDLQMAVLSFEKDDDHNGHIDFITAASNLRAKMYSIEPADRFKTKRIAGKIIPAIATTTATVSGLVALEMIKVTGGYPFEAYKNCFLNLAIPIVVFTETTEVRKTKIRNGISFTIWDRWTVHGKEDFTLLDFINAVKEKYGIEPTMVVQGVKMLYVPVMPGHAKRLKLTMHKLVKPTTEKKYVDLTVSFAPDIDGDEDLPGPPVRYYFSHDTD

[12] = target: T7, HYOU1 (Homo sapiens, UniProt Q9Y4L1); assay: 2D-TPP in U87 cells; format: binding; settings: 1.5 h, stabilized, read-out: pEC50 of protein stabilization, HYOU1 (converted)
T7 construct: endogenous in cells; host or cells: U87 cells

[13] = target: DNAJC3 (Homo sapiens, UniProt Q13217); assay: 2D-TPP in U87 cells
[14] = target: T8, HSPA8 (Homo sapiens, UniProt P11142); assay: 2D-TPP in U87 cells; format: binding; settings: 1.5 h, destabilized, read-out: pEC50 of protein destabilization, HSPA8 (converted)
T8 construct: endogenous in cells; host or cells: U87 cells
T8 sequence (P11142 whole entry): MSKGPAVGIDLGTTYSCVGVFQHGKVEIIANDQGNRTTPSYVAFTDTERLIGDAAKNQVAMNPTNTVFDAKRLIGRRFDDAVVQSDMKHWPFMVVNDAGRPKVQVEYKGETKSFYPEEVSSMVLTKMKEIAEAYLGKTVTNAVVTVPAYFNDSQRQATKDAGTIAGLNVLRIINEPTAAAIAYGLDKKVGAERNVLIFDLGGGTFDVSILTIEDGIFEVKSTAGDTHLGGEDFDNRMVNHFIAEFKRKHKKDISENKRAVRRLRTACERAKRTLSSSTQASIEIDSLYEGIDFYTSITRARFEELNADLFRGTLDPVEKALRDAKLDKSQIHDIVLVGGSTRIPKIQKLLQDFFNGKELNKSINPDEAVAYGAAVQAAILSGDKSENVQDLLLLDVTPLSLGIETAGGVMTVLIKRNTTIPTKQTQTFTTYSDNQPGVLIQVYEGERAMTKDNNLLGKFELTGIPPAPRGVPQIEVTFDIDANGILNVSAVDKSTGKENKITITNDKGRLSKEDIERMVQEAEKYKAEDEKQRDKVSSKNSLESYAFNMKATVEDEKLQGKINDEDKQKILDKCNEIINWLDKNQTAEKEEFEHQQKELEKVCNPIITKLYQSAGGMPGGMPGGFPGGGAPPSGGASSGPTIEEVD

T2 sequence (O15527 whole entry): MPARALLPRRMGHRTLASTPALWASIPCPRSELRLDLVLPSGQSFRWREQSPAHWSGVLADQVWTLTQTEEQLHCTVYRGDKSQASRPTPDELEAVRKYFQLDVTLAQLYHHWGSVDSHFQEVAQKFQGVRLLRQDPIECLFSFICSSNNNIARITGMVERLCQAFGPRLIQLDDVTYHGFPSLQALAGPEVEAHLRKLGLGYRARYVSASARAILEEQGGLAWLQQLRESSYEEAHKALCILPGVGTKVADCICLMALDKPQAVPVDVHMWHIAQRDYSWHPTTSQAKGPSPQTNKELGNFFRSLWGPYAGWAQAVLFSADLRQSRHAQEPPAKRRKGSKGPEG
Sequence of EDEM3 (Q9BZQ6 42-932): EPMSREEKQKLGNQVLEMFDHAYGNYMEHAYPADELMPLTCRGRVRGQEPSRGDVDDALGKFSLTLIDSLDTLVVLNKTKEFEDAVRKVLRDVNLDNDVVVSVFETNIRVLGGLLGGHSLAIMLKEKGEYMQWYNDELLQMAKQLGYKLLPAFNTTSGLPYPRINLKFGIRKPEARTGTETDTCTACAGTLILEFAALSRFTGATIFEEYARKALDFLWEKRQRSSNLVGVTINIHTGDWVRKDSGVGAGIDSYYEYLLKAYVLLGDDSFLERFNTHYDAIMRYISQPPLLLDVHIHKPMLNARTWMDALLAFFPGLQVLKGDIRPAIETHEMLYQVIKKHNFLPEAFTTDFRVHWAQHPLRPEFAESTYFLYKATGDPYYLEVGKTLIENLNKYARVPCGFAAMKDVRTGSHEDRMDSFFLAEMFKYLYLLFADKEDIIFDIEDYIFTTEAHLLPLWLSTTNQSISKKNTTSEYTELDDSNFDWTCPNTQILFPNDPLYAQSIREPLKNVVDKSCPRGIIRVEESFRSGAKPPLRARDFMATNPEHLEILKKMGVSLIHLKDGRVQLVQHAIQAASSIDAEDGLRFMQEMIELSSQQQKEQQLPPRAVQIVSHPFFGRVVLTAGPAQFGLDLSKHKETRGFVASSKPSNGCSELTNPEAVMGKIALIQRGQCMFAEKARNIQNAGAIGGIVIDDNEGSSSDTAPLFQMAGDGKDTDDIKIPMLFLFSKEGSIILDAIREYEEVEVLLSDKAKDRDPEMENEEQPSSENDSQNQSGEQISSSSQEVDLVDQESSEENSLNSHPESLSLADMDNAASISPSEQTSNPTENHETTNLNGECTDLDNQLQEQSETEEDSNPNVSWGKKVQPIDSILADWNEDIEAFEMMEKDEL
T7 sequence (Q9Y4L1 33-999): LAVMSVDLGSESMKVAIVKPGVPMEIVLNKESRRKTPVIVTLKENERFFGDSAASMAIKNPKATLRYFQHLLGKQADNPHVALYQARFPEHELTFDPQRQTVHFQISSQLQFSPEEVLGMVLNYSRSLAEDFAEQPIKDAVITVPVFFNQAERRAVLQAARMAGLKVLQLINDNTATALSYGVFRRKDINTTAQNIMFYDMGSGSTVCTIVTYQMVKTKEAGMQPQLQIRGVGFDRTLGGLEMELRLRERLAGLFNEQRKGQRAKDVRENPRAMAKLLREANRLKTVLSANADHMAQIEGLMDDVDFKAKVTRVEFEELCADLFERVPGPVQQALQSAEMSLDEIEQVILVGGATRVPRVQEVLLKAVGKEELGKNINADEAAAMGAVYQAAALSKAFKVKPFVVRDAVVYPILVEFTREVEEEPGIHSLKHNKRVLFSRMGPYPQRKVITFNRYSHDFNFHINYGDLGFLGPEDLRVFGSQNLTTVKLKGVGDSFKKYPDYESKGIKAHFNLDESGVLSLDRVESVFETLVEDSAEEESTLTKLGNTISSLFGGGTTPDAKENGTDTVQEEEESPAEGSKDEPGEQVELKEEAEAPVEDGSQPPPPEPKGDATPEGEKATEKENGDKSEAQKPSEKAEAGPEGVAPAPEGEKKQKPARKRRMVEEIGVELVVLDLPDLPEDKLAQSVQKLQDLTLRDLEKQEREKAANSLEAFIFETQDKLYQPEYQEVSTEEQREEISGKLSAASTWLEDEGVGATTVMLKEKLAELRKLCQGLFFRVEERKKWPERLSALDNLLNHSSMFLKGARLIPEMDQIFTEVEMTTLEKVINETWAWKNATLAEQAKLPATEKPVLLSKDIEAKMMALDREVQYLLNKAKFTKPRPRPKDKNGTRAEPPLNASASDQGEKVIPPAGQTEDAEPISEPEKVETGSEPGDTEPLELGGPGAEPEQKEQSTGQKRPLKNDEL
T4 sequence (P27797 18-417): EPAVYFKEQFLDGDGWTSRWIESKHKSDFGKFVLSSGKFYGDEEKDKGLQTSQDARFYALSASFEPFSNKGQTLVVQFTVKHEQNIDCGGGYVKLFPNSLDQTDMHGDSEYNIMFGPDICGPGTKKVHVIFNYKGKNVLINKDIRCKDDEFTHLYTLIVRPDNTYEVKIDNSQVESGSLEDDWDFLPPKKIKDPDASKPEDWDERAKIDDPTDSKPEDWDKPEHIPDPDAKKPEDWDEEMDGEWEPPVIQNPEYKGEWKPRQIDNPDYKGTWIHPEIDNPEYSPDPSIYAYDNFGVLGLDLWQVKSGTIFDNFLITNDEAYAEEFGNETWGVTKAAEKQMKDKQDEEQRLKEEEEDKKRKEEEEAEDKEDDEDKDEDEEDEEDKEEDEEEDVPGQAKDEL
T1 sequence (P0DMV8 whole entry): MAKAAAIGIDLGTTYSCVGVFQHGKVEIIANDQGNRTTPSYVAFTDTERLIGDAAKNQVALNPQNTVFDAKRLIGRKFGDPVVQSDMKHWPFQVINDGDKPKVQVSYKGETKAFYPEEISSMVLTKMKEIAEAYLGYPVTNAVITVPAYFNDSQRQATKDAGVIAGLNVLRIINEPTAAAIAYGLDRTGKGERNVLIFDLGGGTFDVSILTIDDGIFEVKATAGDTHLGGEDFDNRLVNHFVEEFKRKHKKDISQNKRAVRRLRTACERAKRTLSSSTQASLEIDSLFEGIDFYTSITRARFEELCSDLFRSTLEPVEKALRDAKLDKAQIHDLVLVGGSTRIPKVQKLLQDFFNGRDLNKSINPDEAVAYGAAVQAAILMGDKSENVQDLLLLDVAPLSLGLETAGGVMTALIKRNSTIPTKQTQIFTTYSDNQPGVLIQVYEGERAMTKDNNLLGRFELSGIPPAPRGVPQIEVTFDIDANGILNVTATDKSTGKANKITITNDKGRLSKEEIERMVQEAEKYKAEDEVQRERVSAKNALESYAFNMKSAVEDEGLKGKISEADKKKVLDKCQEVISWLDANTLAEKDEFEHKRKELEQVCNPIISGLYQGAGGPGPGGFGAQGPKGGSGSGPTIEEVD
T5 sequence (O43301 whole entry): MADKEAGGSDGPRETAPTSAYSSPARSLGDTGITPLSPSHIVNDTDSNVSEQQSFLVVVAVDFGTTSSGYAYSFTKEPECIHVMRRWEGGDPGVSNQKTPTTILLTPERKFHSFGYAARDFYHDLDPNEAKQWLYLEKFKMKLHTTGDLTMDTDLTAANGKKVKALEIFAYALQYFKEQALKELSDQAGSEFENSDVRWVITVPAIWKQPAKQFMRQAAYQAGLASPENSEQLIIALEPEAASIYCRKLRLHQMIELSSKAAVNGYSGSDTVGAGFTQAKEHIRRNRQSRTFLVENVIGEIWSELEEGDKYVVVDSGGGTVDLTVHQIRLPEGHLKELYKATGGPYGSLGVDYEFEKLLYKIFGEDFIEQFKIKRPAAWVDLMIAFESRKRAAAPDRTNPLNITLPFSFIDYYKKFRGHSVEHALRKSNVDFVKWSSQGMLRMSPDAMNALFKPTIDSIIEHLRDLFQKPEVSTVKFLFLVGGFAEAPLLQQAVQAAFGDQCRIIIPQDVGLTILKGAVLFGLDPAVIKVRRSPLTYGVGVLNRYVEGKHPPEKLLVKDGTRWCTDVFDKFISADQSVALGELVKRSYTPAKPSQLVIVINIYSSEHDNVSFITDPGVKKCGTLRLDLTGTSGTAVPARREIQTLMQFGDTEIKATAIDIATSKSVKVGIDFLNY
Sequence of DNAJC3 (Q13217 32-504): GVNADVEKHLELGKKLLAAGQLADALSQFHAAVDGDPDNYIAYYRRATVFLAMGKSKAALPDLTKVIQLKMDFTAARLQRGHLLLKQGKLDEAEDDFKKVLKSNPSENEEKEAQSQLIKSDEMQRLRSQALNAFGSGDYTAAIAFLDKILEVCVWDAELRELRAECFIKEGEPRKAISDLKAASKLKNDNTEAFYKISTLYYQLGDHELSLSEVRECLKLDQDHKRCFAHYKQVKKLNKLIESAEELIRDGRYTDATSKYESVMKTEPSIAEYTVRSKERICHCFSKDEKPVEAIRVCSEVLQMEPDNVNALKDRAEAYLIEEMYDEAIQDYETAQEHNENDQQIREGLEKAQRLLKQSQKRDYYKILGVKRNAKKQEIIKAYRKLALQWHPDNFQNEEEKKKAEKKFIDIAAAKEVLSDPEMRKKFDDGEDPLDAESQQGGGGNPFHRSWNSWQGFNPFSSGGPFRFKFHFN

`CCOC(=O)c1cnn(-c2cccc3c2[nH]c(=O)n3C2CCN(C(=O)Nc3ccc(I)cc3)CC2)c1` [TH6744, ethyl 1-(1-(1-((4-iodophenyl)carbamoyl)piperidin-4-yl)-2-oxo-2,3-dihydro-1H-benzo[d]imidazol-4-yl)-1H-pyrazole-4-carboxylate] was tested, and the “Hsp70 thermal stability (CETSA)” value [1] was “Hsp70 destabilization”, the “binding to OGG1 (CETSA, Western blotting)” value ([2]; SW13 cells, 20 μM) was “binding to its known target OGG1” and the “binding to OGG1 (isothermal dose-response CETSA at 47 °C, Western blotting)” value ([2]; U87 cells) was “binding to its known target OGG1 in U87 cells”. For the same compound, the IC50 [3] was 0.68 µM, the “OGG1 activity (in words)” value ([3]; Figure 3A) was “Nanomolar OGG1activity” and the IC50 ([4]; SW13, 24 h, read-out: Antiviral on titer (µM) IC50 [µM]) was 2.9 µM. The EC50 ([4]; SW13, read-out: EC50 Viral titer) was 2.9 µM, the inhibition at 10 µM ([4]; Vero, 24 h, read-out: Viral inhibition on titer (%)) was 90% and the EC50 [5] was 7.94 µM. For the same compound, the “thermal stability change of EDEM3” value [6] was “stabilized”, the EC50 [7] was 3.98 µM and the EC50 [8] was 12.6 µM. The “reduction of CoV 229E titer” value [9] was 95%, the pec50 ([10]; temperature 45, Set1) was 5.615 and the norm_rel_fc_protein_1_unmodified ([10]; temperature 45, dose 1, Set1) was 0.9697. It also gave a norm_rel_fc_protein_3_unmodified ([10]; temperature 45, dose 3, Set1) of 0.761, a norm_rel_fc_protein_10_unmodified ([10]; temperature 45, dose 10, Set1) of 0.63 and a norm_rel_fc_protein_30_unmodified ([10]; temperature 45, dose 30, Set1) of 0.6272. The EC50 ([11]; temperature 51, Set2) was 0.89 µM, the norm_rel_fc_protein_1_unmodified ([11]; temperature 51, dose 1, Set2) was 1.349 and the norm_rel_fc_protein_3_unmodified ([11]; temperature 51, dose 3, Set2) was 1.572. It also gave a norm_rel_fc_protein_10_unmodified ([11]; temperature 51, dose 10, Set2) of 1.5768, a norm_rel_fc_protein_30_unmodified ([11]; temperature 51, dose 30, Set2) of 1.557 and an EC50 [12] of 10 µM. The EC50 [13] was 3.16 µM and the EC50 [14] was 5.01 µM.
